Experimental findings from ChEMBL document CHEMBL1125660, “Synthesis and aromatase inhibitory activity of novel 1-(4-aminophenyl)-3-azabicyclo[3.1.0]hexane- and -[3.1.1]heptane-2,4- diones” (J Med Chem, 1991) are described below.

By IC50 is commonly meant the concentration that inhibits the measured activity by half. The low end stands for greater potency, the high end for weaker potency.

For data set [1], the target named is T1, Steroid 17-alpha-hydroxylase/17,20 lyase (Homo sapiens, UniProt P05093).
T1 sequence (P05093 whole entry): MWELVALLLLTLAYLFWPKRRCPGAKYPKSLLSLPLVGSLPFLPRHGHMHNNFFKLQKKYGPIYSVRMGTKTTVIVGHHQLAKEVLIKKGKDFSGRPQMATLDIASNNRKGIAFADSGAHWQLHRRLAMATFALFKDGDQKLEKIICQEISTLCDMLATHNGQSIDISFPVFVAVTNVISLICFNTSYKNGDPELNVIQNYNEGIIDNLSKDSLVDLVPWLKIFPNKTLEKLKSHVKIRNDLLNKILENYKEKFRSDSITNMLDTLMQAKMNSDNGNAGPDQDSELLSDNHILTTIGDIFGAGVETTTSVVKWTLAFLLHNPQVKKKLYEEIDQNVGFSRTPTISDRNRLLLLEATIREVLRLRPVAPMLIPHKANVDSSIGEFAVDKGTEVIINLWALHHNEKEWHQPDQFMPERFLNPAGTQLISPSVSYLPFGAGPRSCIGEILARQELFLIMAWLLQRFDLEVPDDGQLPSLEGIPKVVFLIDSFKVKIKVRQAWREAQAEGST
The data set is classed as functional.

The target in data set [2] is T2, Aromatase (Rattus norvegicus, UniProt P22443).
T2 sequence (P22443 whole entry): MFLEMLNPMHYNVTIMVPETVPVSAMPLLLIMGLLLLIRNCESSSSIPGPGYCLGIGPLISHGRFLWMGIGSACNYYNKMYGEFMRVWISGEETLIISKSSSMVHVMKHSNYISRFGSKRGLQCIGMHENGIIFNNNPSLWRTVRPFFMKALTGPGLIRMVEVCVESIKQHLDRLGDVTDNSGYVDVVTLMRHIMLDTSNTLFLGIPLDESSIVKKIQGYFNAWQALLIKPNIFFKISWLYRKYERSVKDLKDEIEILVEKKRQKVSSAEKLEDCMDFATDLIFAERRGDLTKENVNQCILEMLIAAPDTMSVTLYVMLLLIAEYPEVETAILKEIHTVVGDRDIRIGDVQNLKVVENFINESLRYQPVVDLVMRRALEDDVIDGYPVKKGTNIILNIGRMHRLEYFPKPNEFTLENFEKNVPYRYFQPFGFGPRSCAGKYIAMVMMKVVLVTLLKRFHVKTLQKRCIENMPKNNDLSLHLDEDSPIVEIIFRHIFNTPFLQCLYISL
To be noted: in vivo, po.

Data set [3] has as its target T3, Cytochrome P450 11B2, mitochondrial (Rattus norvegicus, UniProt P30099).
T3 sequence (P30099 whole entry): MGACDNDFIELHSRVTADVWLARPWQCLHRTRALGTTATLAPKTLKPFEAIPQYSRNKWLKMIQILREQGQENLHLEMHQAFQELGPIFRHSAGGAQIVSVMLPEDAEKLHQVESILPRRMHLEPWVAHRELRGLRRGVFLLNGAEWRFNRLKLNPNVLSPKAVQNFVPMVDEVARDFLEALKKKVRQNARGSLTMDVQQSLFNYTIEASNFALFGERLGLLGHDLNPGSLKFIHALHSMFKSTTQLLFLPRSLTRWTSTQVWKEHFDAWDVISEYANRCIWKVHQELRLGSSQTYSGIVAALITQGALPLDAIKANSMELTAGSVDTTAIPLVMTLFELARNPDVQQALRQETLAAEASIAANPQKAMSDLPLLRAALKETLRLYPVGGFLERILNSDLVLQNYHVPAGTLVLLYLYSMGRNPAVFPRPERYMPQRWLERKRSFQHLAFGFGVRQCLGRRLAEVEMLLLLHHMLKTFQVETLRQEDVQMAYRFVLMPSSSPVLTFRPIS

The species named for data set [4] is Rattus norvegicus. The data set is classed as functional. As to conditions: dose 125 mg/kg; route oral.
Data set [5] is filed under the species Rattus norvegicus. In kind it is functional. As to conditions: dose 15.6 mg/kg; route oral.
For data set [6], the species on record is Rattus norvegicus. The data set is classed as functional. To be noted: dose 31.3 mg/kg; route oral.
Data set [7] is filed under the species Rattus norvegicus. The data set is classed as functional. As to conditions: dose 31.3 mg/kg.
Data set [8] is filed under the species Rattus norvegicus. The data set is classed as functional. To be noted: dose 15.6 mg/kg; route oral. The source holds these as a separate data set.
For data set [9], the species on record is Rattus norvegicus. In kind it is functional. To be noted: dose 125 mg/kg; route oral. This is another data set of the same source.
The species named for data set [10] is Rattus norvegicus. In kind it is functional.
Data set [11] is filed under the species Rattus norvegicus. The data set is classed as functional. As to conditions: dose 31.3 mg/kg; route oral. The source holds these as a separate data set.
Data set [12] is filed under the species Rattus norvegicus. In kind it is functional. To be noted: dose 12.5 mg/kg.
For data set [13], the species on record is Rattus norvegicus. In kind it is functional. As to conditions: dose 62.5 mg/kg; route oral.
The species entered for data set [14] is Rattus norvegicus. In kind it is functional. To be noted: dose 25.6 mg/kg; route oral.
For data set [15], the target named is T3, Cytochrome P450 11B2, mitochondrial. This is another data set of the same source.
For data set [16], the species on record is Rattus norvegicus. In kind it is functional. As to conditions: dose 15.6 mg/kg.
Data set [17] is filed under the species Rattus norvegicus. In kind it is functional. To be noted: dose 31.3 mg/kg; route oral. The source holds these as a separate data set.
The species named for data set [18] is Rattus norvegicus. In kind it is functional. As to conditions: dose 62.5 mg/kg; route oral. This is another data set of the same source.
For data set [19], the species on record is Rattus norvegicus. The data set is classed as functional. To be noted: dose 62.5 mg/kg; route oral. The source holds these as a separate data set.
The species entered for data set [20] is Rattus norvegicus. In kind it is functional. As to conditions: dose 31.3 mg/kg. This is another data set of the same source.
The species entered for data set [21] is Rattus norvegicus. In kind it is functional. To be noted: dose 125 mg/kg; route oral. This is another data set of the same source.
Data set [22] is filed under the species Rattus norvegicus. In kind it is functional. To be noted: dose 15.6 mg/kg. The source holds these as a separate data set.
The species named for data set [23] is Rattus norvegicus. The data set is classed as functional. As to conditions: dose 62.5 mg/kg; route oral. This is another data set of the same source.
Data set [24] is filed under the species Rattus norvegicus. The data set is classed as functional. To be noted: dose 62.5 mg/kg.
Data set [25] addresses T1, Steroid 17-alpha-hydroxylase/17,20 lyase. In kind it is functional. The source holds these as a separate data set.
The target in data set [26] is T3, Cytochrome P450 11B2, mitochondrial. This is another data set of the same source.
Data set [27] deals with T2, Aromatase. As to conditions: in vivo, po. This is another data set of the same source.
For data set [28], the species on record is Rattus norvegicus. The data set is classed as functional. To be noted: dose 30 mg/kg.
The species named for data set [29] is Rattus norvegicus. The data set is classed as functional. As to conditions: dose 100 mg/kg; route oral.
For data set [30], the species on record is Rattus norvegicus. In kind it is functional. To be noted: dose 30 mg/kg; route oral.
The species entered for data set [31] is Rattus norvegicus. In kind it is functional. As to conditions: dose 30 mg/kg; route oral. The source holds these as a separate data set.
The species entered for data set [32] is Rattus norvegicus. In kind it is functional. To be noted: dose 30 mg/kg; route oral. The source holds these as a separate data set.
For data set [33], the species on record is Rattus norvegicus. In kind it is functional. To be noted: dose 100 mg/kg; route oral. The source holds these as a separate data set.
Data set [34] has as its target T3, Cytochrome P450 11B2, mitochondrial. This is another data set of the same source.
Data set [35] is filed under the species Rattus norvegicus. In kind it is functional. To be noted: dose 30 mg/kg; route oral. The source holds these as a separate data set.
For data set [36], the species on record is Rattus norvegicus. The data set is classed as functional. To be noted: dose 100 mg/kg.
The species named for data set [37] is Rattus norvegicus. The data set is classed as functional. As to conditions: dose 100 mg/kg; route oral. The source holds these as a separate data set.
The species named for data set [38] is Rattus norvegicus. The data set is classed as functional. The source holds these as a separate data set.

As to `Nc1ccc(C23CC(C2)C(=O)N(C2CCCCC2)C3=O)cc1`, the IC50 in data set [1] and in data set [3] was 140 µM each time. On Aromatase [2], this molecule gave an ED of 0.3 mg/kg.

Regarding `Nc1ccc(C23CC2C(=O)N(CC2CCCCC2)C3=O)cc1` (stereo unspecified), the Response was found to be 5% in the data set filed under Rattus norvegicus [4]; 78.3% in the data set filed under Rattus norvegicus [5]; 55% in the data set filed under Rattus norvegicus [6]; 17.4% in the data set listed under Rattus norvegicus [8]; 82.6% in the data set filed under Rattus norvegicus [9]; 30% in the data set listed under Rattus norvegicus [11]. Moreover, the Response in the data set listed under Rattus norvegicus [14] came out at 4.3%; in the data set filed under Rattus norvegicus [17], 15%; in the data set listed under Rattus norvegicus [18], 91.6%; in the data set filed under Rattus norvegicus [19] it was 4.2%; in the data set listed under Rattus norvegicus [21], 0%; in the data set listed under Rattus norvegicus [23] it was 4.1%. The No. of tumors in the data set listed under Rattus norvegicus [7] amounted to 20; in the data set listed under Rattus norvegicus [10], 23; in the data set filed under Rattus norvegicus [13], 24; in the data set listed under Rattus norvegicus [16], 23. Further, the IC50 in data set [1] and in [15] was greater than 330 µM throughout. Moreover, the New tumors is given as 0 in the data set listed under Rattus norvegicus [12], 3 in the data set listed under Rattus norvegicus [20], 3 in the data set filed under Rattus norvegicus [22] and 0 in the data set filed under Rattus norvegicus [24]. At Aromatase [2], the ED was found to be 1.5 mg/kg.

Turning to `Nc1ccc(C23CC2C(=O)N(CC2CCCCC2)C3=O)cc1` (stereo in doubt; (+)-1h), the IC50 in [25] and in data set [26] was greater than 34 µM each time. On Aromatase [27], this molecule registered an ED of 1 mg/kg.

On to `CCC1(c2ccc(N)cc2)CCC(=O)NC1=O` (stereo unspecified) [AMINOGLUTETHIMIDE], for which the New tumors is 4 in the data set listed under Rattus norvegicus [28] and 5 in the data set filed under Rattus norvegicus [36]. For the same molecule, the Response in the data set filed under Rattus norvegicus [29] is 11.2%; in the data set filed under Rattus norvegicus [30] it was 4.25%; in the data set filed under Rattus norvegicus [31] it was 4.1%; in the data set listed under Rattus norvegicus [32], 91.6%; in the data set filed under Rattus norvegicus [33] it was 66.6%; in the data set filed under Rattus norvegicus [37], 22.2%. Besides, the half-inhibitory concentration (IC50) in data set [25] stood at 60 µM; in data set [34], 110 µM. The No. of tumors in the data set filed under Rattus norvegicus [35] came out at 24; in the data set listed under Rattus norvegicus [38] it was 18.
